Peptide text beside a SMILES is read from it. * marks the point of attachment. Cbz = O=C(OCc1ccccc1)*; CH2F = FC*
Experiments:
MEFs [1] = assay: Erastin-induced ferroptosis; type: cell-based, mouse; conditions: erastin 1 μM, 12 hrs, DFO 80 μM, CPX 10 μM, 968 20 μM, AOA 0.5 mM, U0126 and PD0325901 10 μM
MEFs [2] = assay: Serum-dependent necrosis (serum-induced cell death) upon amino acid or cystine starvation; type: cell-based, mouse; conditions: 12 hrs, NAC 0.2 mM, Trolox 0.2 mM; for inhibition of serum-dependent necrosis (cell viability / cell death): total amino acid starvation in the presence of FBS, GPNA 5 mM, 968 20 μM, AOA 0.5 mM, BPTES 10 μM, DFO 80 μM, CPX 10 μM, BIP 100 μM, cysteine/cystine 0.2 mM, U0126 and PD0325901 10 μM; for inhibition of serum-dependent cell death triggered by cystine starvation: cystine starvation in the presence of serum
Protocol: (§1) To induce cell death, 80%-confluent cells were washed with PBS twice, and then cultured in amino acid-free medium, with specific factors added as indicated in individual experiments. Cell death was analyzed by propidium iodide (PI) staining coupled with microscopy or flow cytometry. Alternatively, cell viability was determined using the CellTiter-Glo luminescent Cell Viability Assay (Promega). In assays using WT MEFs, viability was calculated by normalizing ATP levels to cells treated with amino acid-starvation in the presence of 10% (v/v) diFBS, while in assays using bax/bak-DKO MEFs, ATP levels were normalized to cells treated with amino acid and FBS double starvation.

TNF-α induced apoptosis = assay: TNF-α induced apoptosis; type: cell-based; conditions: TNF-α 50 ng/ml + SMAC mimetic 0.5 μM; AOA 0.5 mM
[3] = test system: hearts isolated from wild-type mice; assay: Ischemia-reperfusion (I/R) analysis using isolated hearts (ex vivo heart model); type: in vivo; conditions: ex vivo mouse heart, DFO 80 μM; for left ventricular developed pressure (LVDP) recovery at the end of reperfusion / myocardial infarct size (TTC staining): 30 min global ischemia, 60 min reperfusion; for left ventricular developed pressure (LVDP) recovery at the end of reperfusion: 968 25 μM in perfusate, vehicle 43.20%±1.66%; for myocardial infarct size (TTC staining): vehicle 30.82%±0.57%
Protocol: Male C57BL/6J mice weighing 25-30 g at age 12-14 weeks were used in all experiments and maintained in a temperature-controlled room with alternating 12:12-h light-dark cycles. Experiments were performed using an isovolumic isolated heart preparation as published and modified for the use in mice hearts ([…] et al., 2009; Hwang et al., 2004). Hearts from 12-14 weeks aged wild-type mice were isolated, and retrograde perfused at 37° C. in a non-recirculating mode through the aorta at a rate of 2.5 ml/min. Hearts were perfused with modified Krebs-Henseleit (KH) buffer (118 mM NaCl, 4.7 mM KCl, 2.5 mM CaCl2, 1.2 mM MgCl2, 25 mM NaHCO3, 5 mM glucose, 0.4 mM palmitate, 0.2 mM glutamine, 10 μg/ml human recombinant transferrin, 0.4 mM BSA, and 70 mU/1 insulin). Left ventricular developed pressure (LVDP) was measured using a latex balloon in the left ventricle. LVDP and coronary perfusion pressure were monitored continuously on a four-channel Gould recorder. Hearts were perfused either with KH buffer containing vehicle (DMSO) or the Compounds throughout the FR protocol. After an equilibration period of 30 min, global ischemia was performed for 30 min followed by 60 minutes of reperfusion. Cardiac injury due to I/R stress was assessed by measuring LDH release in the perfusates that were collected during 60 min of reperfusion. […] After 60 min of reperfusion, the heart is perfused with Evans blue in-situ and then removed. Hearts were sliced into cross-sections at approximately 1-mm intervals. The sections were embedded in the TTC solution at 37° C. for 10 min, and area of infarct as a percent of the whole heart was quantified as described. Functional recovery of LVDP was expressed by comparing to the initial LVDP before ischemia. All animal experiments were approved by the Institutional Animal Care and Use Committees of New York University School of Medicine and conformed to the guidelines outlined in the National Institutes of Health Guide for Care and Use of Laboratory Animals (NIH Pub. No. 85-23, 1996).

[4] = 2,2-Diphenyl-1-picrylhydrazyl assay for antioxidant activity; conditions: compound 50 μM, DPPH 50 μM in methanol, 1 hr, room temperature, absorbance at 517 nm
Protocol: The experiment was performed as described previously (Blois, 1958; Dixon et al., 2012). 2,2-Diphenyl-1-picrylhydrazyl (DPPH) (Sigma Cat#D9132) was dissolved in methanol to a final concentration of 50 μM. The tested compounds were added to 1 ml of DPPH solution with a final concentration of 50 μM. Samples were mixed well and incubated at room temperature for 1 hr. The absorbance at 517 nm (indicating the concentration of non-reduced DPPH) was measured using methanol as control.

MEK1/2 = conditions: MEFs, PD0325901 10 μM, U0126 10 μM, Western blotting
MEFs [5] = assay: Death-inducing activity of serum small molecules under amino acid starvation with diFBS; type: cell-based, mouse; conditions: 12 hrs, α-KG 4 mM also in the presence of AOA 0.5 mM, glucose with diFBS or transferrin
Protocol: as §1

bax/bak-DKO MEFs = assay: Death-inducing activity of transferrin and L-Gln under amino acid starvation; type: cell-based, mouse; conditions: 12 hrs
Protocol: as §1

caspase-3 activation = assay: Caspase-3 activation induced by UV light (Western blot); type: cell-based

NOCC(=O)O [AOA, amino-oxyacetate]
inhibition of erastin-induced ferroptosis (PI staining, flow cytometry) (MEFs [1]): can also inhibit
inhibition of serum-dependent necrosis (cell viability / cell death) (MEFs [2]): could inhibit
inhibition of TNF-α induced apoptosis (TNF-α induced apoptosis): cannot inhibit

O=C(Cc1ccccc1)Nc1nnc(CCSCCc2nnc(NC(=O)Cc3ccccc3)s2)s1 [BETPS, Bis-2-(5-phenylacetamido-1,3 ,4-thiadiazol-2-yl)ethyl sulfide]
inhibition of serum-dependent necrosis (cell viability / cell death) (MEFs [2]): failed to block

c1ccc(-c2ccccn2)nc1 [BIP, 2,2-bipyridyl]
inhibition of serum-dependent necrosis (cell viability / cell death) (MEFs [2]): blocked

Cc1cc(C2CCCCC2)n(O)c(=O)c1 [CPX, ciclopirox olamine]
inhibition of erastin-induced ferroptosis (PI staining, flow cytometry) (MEFs [1]): inhibited
inhibition of serum-dependent necrosis (cell viability / cell death) (MEFs [2]): blocked

CN(C)c1ccc(C2Nc3ccc4ccccc4c3C3=C2C(=O)CC(C)(C)C3)cc1Br (stereo not drawn) [Compound 968]
inhibition of erastin-induced ferroptosis (PI staining, flow cytometry) (MEFs [1]): can also inhibit
left ventricular developed pressure (LVDP) recovery at the end of reperfusion [3]: 75.25%±5.75%
myocardial infarct size (TTC staining) ([3]; 968 25 μM): 17.36%±0.47%
release of lactate dehydrogenase (LDH) during reperfusion ([3]; perfusates collected during 60 min reperfusion, 968 25 μM): significantly inhibited
antioxidant activity (reduction of DPPH) [4]: showed no anti-oxidant function
inhibition of serum-dependent necrosis (cell viability / cell death) (MEFs [2]): completely inhibited

N#CC(=C(/N)Sc1ccccc1N)/C(C#N)=C(\N)Sc1ccccc1N [Compound U0126]
inhibition of erastin-induced ferroptosis (PI staining, flow cytometry) (MEFs [1]): able to block
antioxidant activity (reduction of DPPH) [4]: anti-oxidative property
inhibition of MEK1/2 kinase activity (MEK1/2): confirmed the inhibition of MEK1/2 kinase activity
inhibition of serum-dependent necrosis (cell viability / cell death) (MEFs [2]): able to block

CC(=O)N(O)CCCCCNC(=O)CCC(=O)N(O)CCCCCNC(=O)CCC(=O)N(O)CCCCCN [DFO, Deferoxamine]
left ventricular developed pressure (LVDP) recovery at the end of reperfusion [3]: 64.75%±4.09%
myocardial infarct size (TTC staining) ([3]; 968 25 μM): 22.60%±0.97%

CCOC(=O)c1ccc(NC2CCCCC2)c(N)c1 [Fer-1]
inhibition of serum-dependent cell death triggered by cystine starvation (MEFs [2]): can block
inhibition of serum-dependent necrosis (cell viability / cell death) (MEFs [2]): can block

N[C@@H](CCC(=O)Nc1ccc([N+](=O)[O-])cc1)C(=O)O [GPNA, L-g-glutamyl-p-nitroanilide]
inhibition of serum-dependent necrosis (cell viability / cell death) (MEFs [2]): markedly blocked

N[C@@H](CCC(=O)N[C@@H](CS)C(=O)NCC(=O)O)C(=O)O [GSH, glutathione]
inhibition of serum-dependent cell death triggered by cystine starvation (MEFs [2]): effectively blocked
inhibition of serum-dependent necrosis (cell viability / cell death) (MEFs [2]): effectively blocked

NC(=O)CC[C@H](N)C(=O)O [L-Gln, L-glutamine]
induction of cell death in the presence of diFBS (MEFs [5]): induced potent cell death
induction of cell death by L-Gln alone (bax/bak-DKO MEFs; L-Gln 0.1 mM alone): induced modest but measurable cell death

CC(=O)N[C@@H](CS)C(=O)O [NAC, N-acetylcysteine]
inhibition of serum-dependent cell death triggered by cystine starvation (MEFs [2]): effectively blocked
inhibition of serum-dependent necrosis (cell viability / cell death) (MEFs [2]): effectively blocked

O=C(NOC[C@H](O)CO)c1ccc(F)c(F)c1Nc1ccc(I)cc1F [PD0325901]
antioxidant activity (reduction of DPPH) [4]: showed no anti-oxidant function

Cc1c(C)c2c(c(C)c1O)CCC(C)(C(=O)O)O2 (stereo not drawn) [Trolox, 6-hydroxy-2,5,7,8-tetramethylchroman-2-carboxylic acid]
inhibition of serum-dependent cell death triggered by cystine starvation (MEFs [2]): effectively blocked
inhibition of serum-dependent necrosis (cell viability / cell death) (MEFs [2]): effectively blocked

N[C@@H](CS)C(=O)O [cysteine]
inhibition of serum-dependent necrosis (cell viability / cell death) (MEFs [2]): rescued cells from necrosis

N[C@@H](CSSC[C@H](N)C(=O)O)C(=O)O [cystine]
inhibition of serum-dependent necrosis (cell viability / cell death) (MEFs [2]): rescued cells from necrosis

COC(=O)C[C@H](NC(=O)[C@H](C)NC(=O)[C@@H](NC(=O)OCc1ccccc1)C(C)C)C(=O)CF [zVAD-FMK] (Cbz-Val-Ala-Asp(OMe)-CH2F)
inhibition of serum-dependent necrosis (cell viability / cell death) (MEFs [2]): failed to block
block of caspase-3 activation induced by UV light (caspase-3 activation): can block

COC(=O)CCC(=O)C(=O)OC [α-KG, Dimethyl-α-Ketoglutarate]
induction of cell death in the presence of diFBS (MEFs [5]): can induce potent cell death

L-alanine-L-glutamine [A-Q]
induction of cell death in the presence of diFBS (MEFs [5]): able to induce cell death

recombinant human holo-transferrin: recombinant human holo-transferrin expressed in rice
induction of cell death in the presence of smFBS (bax/bak-DKO MEFs; with smFBS): could induce cell death in a dose-dependent manner

transferrin: iron carrier protein in serum
cell death on addition of transferrin to L-Gln (bax/bak-DKO MEFs; with L-Gln 0.1 mM): further enhanced cell death
